Measured values taken from US20150290200A1, “INTRACELLULAR KINASE INHIBITORS” (Pharmacyclics Inc., priority 2006, published 2015).
Read-outs that look alike come from different tables or passages of the source.

Columns and labels:
[1] = molecular target: T1, BTK kinase domain (Homo sapiens, UniProt Q06187); test: In vitro kinase assay (HITHUNTER), BTK; format: biochemical
T1 construct: The kinase domains of BTK, LCK and ERK were expressed as recombinant purified proteins; made in house
Excerpt: Similarly, commercially available reagents such as HITHUNTER™ were used to evaluate the effect of compounds on the activity of additional kinases. The kinase domains of BTK, LCK and ERK were expressed as recombinant purified proteins were used for these studies.

[2] = molecular target: T2, ITK kinase domain (Homo sapiens, UniProt Q08881); test: In vitro kinase assay (HITHUNTER enzyme fragment complementation), ITK; format: biochemical
T2 construct: N-terminally His-tagged ITK kinase domain (amino acids 352-617); His (N); made in house
T2 sequence (Q08881 352-617): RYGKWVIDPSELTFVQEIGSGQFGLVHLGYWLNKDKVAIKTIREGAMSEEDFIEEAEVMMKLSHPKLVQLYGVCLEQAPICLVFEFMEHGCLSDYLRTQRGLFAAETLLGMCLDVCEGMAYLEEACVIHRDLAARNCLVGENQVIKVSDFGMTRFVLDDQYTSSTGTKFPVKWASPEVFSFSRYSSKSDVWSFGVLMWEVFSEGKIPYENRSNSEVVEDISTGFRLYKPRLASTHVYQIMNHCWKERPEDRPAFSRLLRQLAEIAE
Procedure: Compounds were screened using the HITHUNTER™ enzyme fragment complementation method (Discoverx). Briefly, a recombinantly produced, N-terminally His-tagged ITK kinase domain (amino acids 352-617) was incubated with various concentrations of individual compounds. ATP and substrate were added, and the kinase reaction was allowed to proceed for 2-16 hours. Commercially available detection reagents were added and allowed to react for 2-4 hours. The reaction was evaluated by luminescence. Initial results were confirmed using full-length recombinant ITK protein.
In order to confirm the mechanism by which compounds depicted herein interact with the kinase domain of Tec and EGFR kinases, we created a point mutant of the ITK kinase domain, whereby the key amino acid, namely C442 was mutated to alanine. The protein was expressed in a commercial baculovirus expression system using the manufacturer's general protocol (Invitrogen, pBlueBac). Protein was expressed and purified using standard techniques. […] While the activity of WT-ITK was inhibited by compounds depicted in this application, the same compounds had no activity towards the C442A mutant kinase domain.

[3] = Table 3, Compound, read-out: IC50 ITK
[4] = Table 3, naphthyl analog, read-out: IC50 ITK

T1 sequence (Q06187 402-655 limits assumed): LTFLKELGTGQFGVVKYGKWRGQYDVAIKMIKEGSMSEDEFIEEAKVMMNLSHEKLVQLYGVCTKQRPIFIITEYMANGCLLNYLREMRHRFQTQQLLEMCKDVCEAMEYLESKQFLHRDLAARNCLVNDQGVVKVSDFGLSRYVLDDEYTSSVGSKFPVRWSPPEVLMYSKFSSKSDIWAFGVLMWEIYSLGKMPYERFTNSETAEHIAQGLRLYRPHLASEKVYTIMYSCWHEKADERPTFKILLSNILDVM

SMILES: O=C(CCN1CCC[C@@H]1CO)c1ccc2ccccc2c1
- IC50 ([1]; Table 5): 123 nM
- IC50 ([2]; Table 5, read-out: IC50 ITK): 49 nM

SMILES: CN(C)C1CCN(CCC(=O)c2ccc3ccccc3c2)CC1 [drawing 216]
- IC50 ([2]; Table 5, read-out: IC50 ITK): 9.5 nM

SMILES: O=C(CCN1CCOCC1)c1ccc2ccccc2c1 [drawing 185]
- IC50 ([1]; Table 4): 39 nM
- IC50 ([2]; Table 4, read-out: IC50 ITK): 20 nM

SMILES: CC(C)C1CCN(CCC(=O)c2ccc3ccccc3c2)CC1
- IC50 ([2]; Table 1, ITK, read-out: IC50): 13.3 nM

SMILES: O=C(CCN1CCN(c2ccccc2)CC1)c1ccc2ccccc2c1
- IC50 ([2]; Table 1, ITK, read-out: IC50): 4.26 nM

SMILES: CN(C)CCC(=O)c1ccc2ccccc2c1
- IC50 ([2]; Table 5, read-out: IC50 ITK): 161 nM

SMILES: O=C(CCN1CCOCC1)c1cnc2ccccc2c1
- IC50 ([1]; Table 4): 100 nM
- IC50 ([2]; Table 4, read-out: IC50 ITK): 189 nM

SMILES: CN(CCC(=O)c1ccc2c(c1)NC(=O)CO2)Cc1ccc(F)cc1
- IC50 ([1]; Table 3, Compound): 300 nM
- IC50 [2, 3]: 10 nM

SMILES: CN(C)C(=O)N1CCN(CCC(=O)c2ccc3ccccc3c2)CC1
- IC50 ([1]; Table 5): 452 nM
- IC50 ([2]; Table 5, read-out: IC50 ITK): 56 nM

SMILES: O=C(CCN1CCOCC1)c1csc2ccccc12
- IC50 ([1]; Table 4): 611 nM
- IC50 ([2]; Table 4, read-out: IC50 ITK): 134 nM

SMILES: O=C(CCNCC1CCN(C(=O)c2ccncc2)CC1)c1ccc2ccccc2c1
- IC50 ([1]; Table 5): 4 nM
- IC50 ([2]; Table 5, read-out: IC50 ITK): 36 nM

SMILES: O=C(O)c1ccc2cc(C(=O)CCN3CCOCC3)ccc2c1
- IC50 ([1]; Table 4): 2360 nM
- IC50 ([2]; Table 4, read-out: IC50 ITK): 3340 nM

SMILES: O=C(CCN1CCOCC1)c1cc2ccccc2o1
- IC50 BTK ([1]; Table 4): no IC50
- IC50 ([2]; Table 4, read-out: IC50 ITK): 56400 nM

SMILES: NC(=O)c1ccc2cc(C(=O)CCN3CCOCC3)ccc2c1 [drawing 198]
- IC50 ([1]; Table 4): 1 nM
- IC50 ([2]; Table 4, read-out: IC50 ITK): 5 nM

SMILES: COc1cc2c(cc1OC)CN(CCC(=O)c1ccc3ccccc3c1)CC2 [drawing 212]
- IC50 ([1]; Table 5): 115 nM
- IC50 ([2]; Table 5, read-out: IC50 ITK): 7.2 nM

SMILES: O=C(CCN1CCC(Cc2ccccc2)CC1)c1ccc2ccccc2c1 [drawing 182]
- IC50 ([2]; Table 4, read-out: IC50 ITK): 92.8 nM

SMILES: COc1ccc(C(=O)CCN2CCOCC2)cc1[N+](=O)[O-]
- IC50 ([2]; Table 2, read-out: IC50 ITK): 20 nM

SMILES: CC(C)N(CCC(=O)c1ccc2c(c1)NC(=O)CO2)C(C)C
- IC50 ([1]; Table 3, Compound): 544 nM
- IC50 [2, 3]: 23 nM

SMILES: CN1CCN(CCC(=O)c2ccc3ccccc3c2)CC1 [drawing 110]
- IC50 ([2]; Table 1, ITK, read-out: IC50): 50.4 nM

SMILES: O=C(CCN1CCN(C(=O)c2ccncc2)CC1)c1ccc2ccccc2c1
- IC50 ([1]; Table 5): 18 nM
- IC50 ([2]; Table 5, read-out: IC50 ITK): 54 nM

SMILES: CN(CCC(=O)c1ccc2ccccc2c1)Cc1ccc(C(F)(F)F)cc1
- IC50 ([2]; Table 4, read-out: IC50 ITK): 56.7 nM

SMILES: CN(CCC(=O)c1ccc2ccccc2c1)Cc1ccccc1 [drawing 107]
- IC50 ([2]; Table 1, ITK, read-out: IC50): 25.8 nM

SMILES: CC(C)N(C)CCC(=O)c1ccc2ccccc2c1
- IC50 ([2]; Table 5, read-out: IC50 ITK): 16.3 nM

SMILES: CN(C)C1CCN(CCC(=O)c2ccc3ccccc3c2)C1 (stereo not shown) [drawing 214]
- IC50 ([1]; Table 5): 49.2 nM
- IC50 ([2]; Table 5, read-out: IC50 ITK): 6.9 nM

SMILES: O=C(CCNCC1CCNCC1)c1ccc2ccccc2c1
- IC50 ([1]; Table 5): 100 nM
- IC50 ([2]; Table 5, read-out: IC50 ITK): 163 nM

SMILES: O=C(CCN1CCC(C(=O)c2ccncc2)CC1)c1ccc2ccccc2c1
- IC50 ([1]; Table 5): 486 nM
- IC50 ([2]; Table 5, read-out: IC50 ITK): 284 nM

SMILES: O=C(CCN1Cc2ccccc2C1)c1ccc2ccccc2c1 [drawing 217]
- IC50 ([2]; Table 5, read-out: IC50 ITK): 16.2 nM

SMILES: O=C(CCN1CCOCC1)c1ccc2ccccc2n1
- IC50 ([1]; Table 4): 5000 nM
- IC50 ([2]; Table 4, read-out: IC50 ITK): 48 nM

SMILES: O=C(CCN1CCOCC1)c1ccc2ccccc2c1 [drawing 254]
- IC50 ([2]; Table 7, elimination mechanism, read-out: IC50 ITK): 44.6 nM

SMILES: O=C(CCN1CCOCC1)c1ccc2cc(O)ccc2c1
- IC50 ([1]; Table 4): 6 nM
- IC50 ([2]; Table 4, read-out: IC50 ITK): 30 nM

SMILES: CN(CCC(=O)c1ccc2ccccc2c1)Cc1ccco1 [drawing 118]
- IC50 ([2]; Table 1, ITK, read-out: IC50): 19.6 nM

SMILES: CN1CCN(CCC(=O)c2ccc3ccccc3c2)CC1 [drawing 208]
- IC50 ([2]; Table 5, read-out: IC50 ITK): 30.9 nM

SMILES: O=C(CCN1CCN(CC2CCCCC2)CC1)c1ccc2ccccc2c1 [drawing 111]
- IC50 ([2]; Table 1, ITK, read-out: IC50): 11.4 nM

SMILES: CN(CCC(=O)c1ccc2ccccc2c1)Cc1ccccc1 [drawing 203]
- IC50 ([2]; Table 5, read-out: IC50 ITK): 16.9 nM

SMILES: CN(C)C1CCN(CCC(=O)C2=CC3NC(=O)COC3C=C2)C1 (stereo not shown)
- IC50 ([1]; Table 3, Compound): 1890 nM
- IC50 [2, 3]: 72 nM

SMILES: O=C(CCN1CCCCC1)c1ccc2ccccc2c1
- IC50 ([2]; Table 5, read-out: IC50 ITK): 537 nM

SMILES: CN(C)C1CCN(CCC(=O)c2ccc3ccccc3c2)CC1 [drawing 177]
- IC50 ([1]; Table 3, naphthyl analog): 6.54 nM
- IC50 [2, 4]: 9 nM

SMILES: CC(C)N(CCC(=O)c1ccc2ccccc2c1)C(C)C [drawing 179]
- IC50 ([1]; Table 3, naphthyl analog): 0.72 nM
- IC50 [2, 4]: 9 nM

SMILES: O=C(CCN1CCN(Cc2ccccc2)CC1)c1ccc2ccccc2c1
- IC50 ([2]; Table 4, read-out: IC50 ITK): 30.3 nM

SMILES: O=C(CCN1CCN(c2ccccn2)CC1)c1ccc2ccccc2c1 [drawing 211]
- IC50 ([2]; Table 5, read-out: IC50 ITK): 24.2 nM

SMILES: COc1cc2c(cc1OC)CN(CCC(=O)c1ccc3c(c1)NC(=O)CO3)CC2 [drawing 168]
- IC50 ([1]; Table 3, Compound): 276 nM
- IC50 [2, 3]: 30 nM

SMILES: OC(CCN1CCOCC1)c1ccc2ccccc2c1 (stereo not shown)
- IC50 ITK ([2]; Table 7, elimination mechanism): no IC50
